pIC50: −log10 of the molar value. Read-outs that look alike come from different tables or passages of the source.
How the values were obtained:
[1] = tested on: HCT-116-Irv cells (elisidepsin-resistant subline); experiment: cells; conditions: for pIC50: read-out: HCT-116-Irv (IC50), cell growth half-maximal inhibitory concentration; for RR (resistance ratio): fold change between IC50 values from HCT-116-Irv and HCT-116: negative values where HCT-116-Irv is the more sensitive line
Experimental: B16 and GM95 cells were maintained in DMEM with the same supplements and conditions.
(§1) Cells were seeded in 96-well microtiter plates and maintained at 37°C and 5% CO2 in drug-free medium before treatment with vehicle alone or elisidepsin at the concentrations and times indicated in the text. For cell survival quantification, a colorimetric assay using SRB was used. Briefly, after treatment, cells were washed twice with phosphate buffered saline (PBS), fixed for 25 min in 1% glutaraldehyde solution, rinsed twice with PBS, stained in 0.4% SRB-1% acetic acid solution for 30 min, rinsed several times with 1% acetic acid solution, and air-dried. […] Results are expressed as percentage of control cell survival and represent the mean of at least three independent experiments. IC50, half-maximal inhibitory concentration, was used as a reference value.

HCT-116 cells = experiment: cells
Experimental: as §1

[2] = tested on: GM95 cells (UGCG-deficient B16 mutant); experiment: Cell viability assay (SRB colorimetric); type: cell-based, mouse; conditions: for pIC50: read-out: GM95 (IC50), cell growth half-maximal inhibitory concentration; for RR: fold change between IC50 values from GM95 and B16: negative values where GM95 is the more sensitive line
Experimental: as §1

B16 cells = experiment: Cell viability assay (SRB colorimetric); type: cell-based, mouse
Experimental: as §1

Elisidepsin = experiment: FRET or BRET; two-photon FLIM-FRET, phasor analysis, on live HCT-116 cells in Tyrode-glucose buffer; mix of donor Irv-OG488 200 nM, acceptor Irv-A555 800 nM and elisidepsin 3 μM added to the cells; assemblies seen in the plasma membrane
[3] = Homo sapiens, HCT-116, read-out: HCT-116 (IC50), cell growth half-maximal inhibitory concentration
[4] = SRB assay, 96-well, mean of three different experiments, exposure time not given
[5] = SRB assay, mean of three different experiments
[6] = SRB assay, mean of three different experiments, read-out: B16 (IC50), cell growth half-maximal inhibitory concentration
[7] = read-out: HCT-116 (IC50), cell growth half-maximal inhibitory concentration, SRB assay, 96-well, mean of three different experiments, exposure time not given
[8] = Mus musculus, B16, read-out: B16 (IC50), cell growth half-maximal inhibitory concentration

Molecule	pIC50 ([1]; Homo sapiens)	RR (resistance ratio): fold change between IC50 values from HCT-116-Irv and HCT-116 [1]	pIC50 (HCT-116 cells; [3])	RR: fold change between IC50 values from GM95 and B16 [2]	further results
O=c1[nH]cc(F)c(=O)[nH]1 [5-FU, 5-fluorouracil]	4.96	2.8	5.40		
C[C@@H]1[C@H](O)[C@@H](C)/C=C/C=C/C=C/C=C/C=C/C=C/C=C/[C@H](O[C@@H]2O[C@H](C)[C@@H](O)[C@H](N)[C@@H]2O)C[C@@H]2O[C@](O)(C[C@@H](O)C[C@@H](O)[C@H](O)CC[C@@H](O)C[C@@H](O)CC(=O)O[C@H]1C)C[C@H](O)[C@H]2C(=O)O [Amphotericin B]	5.21	1.2	5.28		
N.N.[Cl][Pt][Cl] [Cisplatin]		-2.7		-2.0	pIC50 [1, 4]: 5.44; pIC50 [2, 5]: 5.03; pIC50 (B16 cells; [6]): 4.74; pIC50 (HCT-116 cells; [7]): 5.01
COc1cc2c(c(OC)c1OC)-c1ccc(OC)c(=O)cc1[C@@H](NC(C)=O)CC2 [Colchicine]	8.55		8.41		
CC(=O)O[C@@]12CO[C@@H]1C[C@H](O)[C@@]1(C)C(=O)[C@H](O)C3=C(C)[C@@H](OC(=O)[C@H](O)[C@@H](NC(=O)OC(C)(C)C)c4ccccc4)C[C@@](O)([C@@H](OC(=O)c4ccccc4)[C@H]21)C3(C)C [Docetaxel]	8.74		8.54		
COc1cccc2c1C(=O)c1c(O)c3c(c(O)c1C2=O)C[C@@](O)(C(=O)CO)C[C@@H]3O[C@H]1C[C@H](N)[C@H](O)[C@H](C)O1 [Doxorubicin]	7.00		6.85	-1.9	pIC50 ([2]; Mus musculus): 7.03; pIC50 (B16 cells; [8]): 6.74
CCCCCCCCCCCCCCCCCCOCC(COP(=O)([O-])OCC[N+](C)(C)C)OC (stereo not shown) [Edelfosine]	4.54	1.0	4.54		
C/C(=C\c1csc(C)n1)[C@@H]1C[C@@H]2O[C@]2(C)CCC[C@H](C)[C@H](O)[C@@H](C)C(=O)C(C)(C)[C@@H](O)CC(=O)O1 [Epothilone B]	8.41	1.8	8.66		
C#Cc1cccc(Nc2ncnc3cc(OCCOC)c(OCCOC)cc23)c1 [Erlotinib]	4.80		4.49		
COc1cc([C@@H]2c3cc4c(cc3[C@@H](O[C@@H]3O[C@@H]5CO[C@@H](C)O[C@H]5[C@H](O)[C@H]3O)[C@H]3COC(=O)[C@H]23)OCO4)cc(OC)c1O [Etoposide]	6.02		5.92		
Nc1ccn([C@@H]2O[C@H](CO)[C@@H](O)C2(F)F)c(=O)n1 [Gemcitabine]	9.17	1.1	9.20	1.4	pIC50 ([2]; Mus musculus, SRB assay, mean of three different experiments): 8.09; pIC50 (B16 cells; Mus musculus, B16, SRB assay, mean of three different experiments, read-out: B16 (IC50), cell growth half-maximal inhibitory concentration): 8.25
CN(Cc1cnc2nc(N)nc(N)c2n1)c1ccc(C(=O)N[C@@H](CCC(=O)O)C(=O)O)cc1 [Methotrexate]	7.11	2.1	7.43	-1.4	pIC50 ([2]; Mus musculus): 6.43; pIC50 (B16 cells; [8]): 6.30
CO[C@@]12[C@H](COC(N)=O)C3=C(C(=O)C(C)=C(N)C3=O)N1C[C@@H]1N[C@@H]12 [Mitomycin C]	6.52		6.48	-2.3	pIC50 ([2]; Mus musculus): 5.60; pIC50 (B16 cells; [8]): 5.24
CC(=O)O[C@H]1C(=O)[C@@]2(C)[C@H]([C@H](OC(=O)c3ccccc3)[C@]3(O)C[C@H](OC(=O)[C@H](O)[C@@H](NC(=O)c4ccccc4)c4ccccc4)C(C)=C1C3(C)C)[C@]1(OC(C)=O)CO[C@@H]1C[C@@H]2O [Paclitaxel]	8.08	1.2	8.16	2.2	pIC50 ([2]; Mus musculus): 7.47; pIC50 (B16 cells; [8]): 7.82
CC[C@]1(O)C[C@@H]2CN(CCc3c([nH]c4ccccc34)[C@@](C(=O)OC)(c3cc4c(cc3OC)N(C)[C@H]3[C@@](O)(C(=O)OC)[C@H](OC(C)=O)[C@]5(CC)C=CCN6CC[C@]43[C@@H]65)C2)C1 [Vinblastine]	9.39	1.3	9.49		
CCC1=C[C@@H]2CN(C1)Cc1c([nH]c3ccccc13)[C@@](C(=O)OC)(c1cc3c(cc1OC)N(C)[C@H]1[C@@](O)(C(=O)OC)[C@H](OC(C)=O)[C@]4(CC)C=CCN5CC[C@]31[C@@H]54)C2 [Vinorelbine]	6.72	1.1	6.80		
Elisidepsin (peptide)					FRET efficiency (Elisidepsin): 60%
Syringomycin E		-1.4		-1.3	pIC50 [1, 4]: 4.82; pIC50 [2, 5]: 5.05; pIC50 (B16 cells; [6]): 4.96; pIC50 (HCT-116 cells; [7]): 4.70

Reference: publication PMC4608773, “Elisidepsin Interacts Directly with Glycosylceramides in the Plasma Membrane of Tumor Cells to Induce Necrotic Cell Death” (PLoS ONE, 2015)
